Measured values from US20200207989A1, “FLUORESCENT PROBE FOR ALDH3A1 DETECTION” (The University of Tokyo, priority 2016, published 2020).

T1: ALDH1A1 (Homo sapiens, UniProt P00352)
T1 construct: purchased
T1 sequence (P00352 1-501): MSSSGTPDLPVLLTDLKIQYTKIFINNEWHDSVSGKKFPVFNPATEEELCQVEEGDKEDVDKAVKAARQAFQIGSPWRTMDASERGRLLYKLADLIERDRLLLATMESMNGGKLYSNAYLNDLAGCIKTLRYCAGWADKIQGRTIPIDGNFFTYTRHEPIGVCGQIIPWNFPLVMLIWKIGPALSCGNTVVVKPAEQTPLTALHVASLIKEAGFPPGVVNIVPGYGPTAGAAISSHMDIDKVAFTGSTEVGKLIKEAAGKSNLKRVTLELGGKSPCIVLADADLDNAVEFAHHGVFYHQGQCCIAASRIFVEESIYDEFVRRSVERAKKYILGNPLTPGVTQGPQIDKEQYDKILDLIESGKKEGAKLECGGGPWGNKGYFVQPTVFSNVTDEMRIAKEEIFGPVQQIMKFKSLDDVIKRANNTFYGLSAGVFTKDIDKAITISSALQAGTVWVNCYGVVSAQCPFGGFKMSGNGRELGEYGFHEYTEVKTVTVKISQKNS

T2: ALDH3A1 (Homo sapiens, UniProt P30838)
T2 construct: purchased
T2 sequence (P30838 1-453): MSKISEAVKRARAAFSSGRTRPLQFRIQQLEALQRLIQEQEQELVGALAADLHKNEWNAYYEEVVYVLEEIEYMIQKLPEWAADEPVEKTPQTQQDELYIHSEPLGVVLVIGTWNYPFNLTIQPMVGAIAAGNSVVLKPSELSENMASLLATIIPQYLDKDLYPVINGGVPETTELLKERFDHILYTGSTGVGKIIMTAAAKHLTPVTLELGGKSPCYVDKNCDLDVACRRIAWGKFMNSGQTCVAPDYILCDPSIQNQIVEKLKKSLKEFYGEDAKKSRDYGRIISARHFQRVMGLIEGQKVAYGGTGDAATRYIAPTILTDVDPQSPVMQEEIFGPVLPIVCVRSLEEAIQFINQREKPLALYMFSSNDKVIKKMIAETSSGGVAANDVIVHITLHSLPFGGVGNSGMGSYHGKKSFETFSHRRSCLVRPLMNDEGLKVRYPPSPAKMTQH

T3: ALDH1A3 (Homo sapiens, UniProt P47895)
T3 construct: purchased
T3 sequence (P47895 1-512): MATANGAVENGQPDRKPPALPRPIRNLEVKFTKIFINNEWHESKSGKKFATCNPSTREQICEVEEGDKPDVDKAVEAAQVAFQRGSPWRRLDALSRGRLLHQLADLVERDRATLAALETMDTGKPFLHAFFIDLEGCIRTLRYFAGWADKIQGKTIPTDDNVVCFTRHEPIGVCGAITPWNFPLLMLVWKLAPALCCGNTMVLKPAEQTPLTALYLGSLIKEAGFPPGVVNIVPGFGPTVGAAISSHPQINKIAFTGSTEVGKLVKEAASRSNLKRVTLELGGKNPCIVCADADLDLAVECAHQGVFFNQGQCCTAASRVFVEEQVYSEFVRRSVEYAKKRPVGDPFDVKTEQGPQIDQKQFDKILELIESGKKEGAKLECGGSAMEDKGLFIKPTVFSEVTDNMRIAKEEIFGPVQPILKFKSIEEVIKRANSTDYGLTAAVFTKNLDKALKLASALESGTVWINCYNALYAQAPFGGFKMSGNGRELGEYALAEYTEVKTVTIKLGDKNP

B1: ALDH1A1 (Homo sapiens) (protein)
chain: T1 sequence (P00352 1-501)
notes: purchased

Legend:
ALDH1A1 [1] = biological target: T1, ALDH1A1; experiment: Reactivity of probes to recombinant ALDH1A1 (UPLC/MS/MS detection of aldehyde and carboxylic acid forms); type: biochemical; settings: 10-100 nM ALDH, 10-80 μM compound, Tris buffer pH 7.5, 30 minutes at 37° C., ◯/X not defined by a legend
Description: (§1) Human recombinant ALDH1A1/1A3/3A1 was purchased, and 100 mM of KCL, 2 mM of DTT, 1 mM of NAD(P), 10-100 nM of each ALDH, and 10-80 μM of each compound were mixed in Tris buffer (100 mM, pH 7.5), reacted for 30 minutes at 37° C., an equal amount of acetonitrile added, and the reaction stopped. The reaction solution was analyzed by UPLC/MS/MS (Waters). The UPCL chromatogram was carried out over five minutes at a flow rate of 800 μL/min by a linear gradient from 5% acetonitrile 0.01 M ammonium formate/water to 95% acetonitrile 0.01 M ammonium formate/water. An aldehyde-form and carboxylic acid-form probe were detected by the absorbance at a wavelength of 504 nm, and m/z of the MS spectrum at each peak was confirmed to agree with the expected m/z.

ALDH3A1 [2] = biological target: T2, ALDH3A1; experiment: Reactivity of probes to recombinant ALDH3A1 (UPLC/MS/MS); type: biochemical; settings: 10-100 nM ALDH, 10-80 μM compound, Tris buffer pH 7.5, 30 minutes at 37° C., ◯/X not defined by a legend
Description: as §1, with “formate/water.” for “formate/water. An aldehyde-form and carboxylic acid-form probe were detected by the absorbance at a wavelength of 504 nm, and m/z of the MS spectrum at each peak was confirmed to agree with the expected m/z.”

ALDH1A1 [3] = biological target: T1, ALDH1A1; experiment: Kinetic characteristics (Michaelis-Menten Km, Kcat) with ALDH1A1; type: biochemical; settings: five minutes at 37° C., Tris buffer pH 7.5
Description: as §1
(§2) For the reaction, 100 mM of KCL, 2 mM of DTT, 1 mM of NAD(P), and five to six concentrations within the range of 10-100 nM of each ALDH and 0.1-80 μM of each probe were selected, mixed in Tris buffer (100 mM, pH 7.5), and reacted for five minutes at 37° C.; an equal amount of acetonitrile was added, and the reaction was stopped. Detection of the aldehyde-form/carboxylic acid-form probes was carried out using the same method as described above by UPLC/MS/MS. Km and Kcat were calculated by fitting the reaction rate at each probe concentration obtained to the Michaelis-Menten equation. A Kaleida Graph ver. 4.1 (Hulinks, Inc.) was used in fitting.

ALDH3A1 [4] = biological target: T2, ALDH3A1; experiment: Kinetic characteristics (Michaelis-Menten Km, Kcat) with ALDH3A1; type: biochemical
Description: as §1, §2
The Kcat ratio (Kcat of ALDH3A1/Kcat of ALDH1A1) was calculated for probe 1, probe 3, and probe 5 as an indicator of ALDH1A1/ALDH3A1 specificity because the probe reaction rate at the actual probe use concentration is believed to be close to Vmax since Km is relatively small (Table 5).

[5] = HPLC (LC/MS) retention time as measure of hydrophilicity / membrane permeability; type: physicochemical; settings: C18 column; 20% B 2.5 min, 20%-->100% B 5 min, 500 μL/min; neutral conditions; mean±SD of three tests
Description: In the present invention, it is preferable to use the retention time on an HPLC chromatogram as the measure of hydrophilicity.
HPLC conditions: taking solvent A to be 0.01 M ammonium formate/water and solvent B to be 80% acetonitrile 0.01 M ammonium formate/water, chromatography is carried out under conditions of 20% solvent B for 2.5 minutes followed by a 5-minute linear gradient of solvent B from 20% to 100% (flow rate 500 μL/min).
A C18 column (HP 3 μm, inner diameter: 2.1 mm, length: 150 mm, GL Science), for example, can be used suitably as the column.
The water solubility was verified by LC/MS under neutral conditions to compare the membrane permeability of the five probes produced above and ALDEFLUOR. The reaction was stopped after advancing the reaction to the point that each probe was present as both a carboxylic acid form and an aldehyde form using a suitable isoform and concentration of ALDH, and analysis was conducted by LC/MS (Agilent 1200/6130 quadrupole LC/MS system). A C18 column (HP 3 μm, inner diameter: 2.1 mm, length: 150 mm, GL Science) was used as the column. HPLC chromatograms were carried out by 20% B for 2.5 minutes followed by a five-minute linear gradient (flow rate: 500 μL/min) from 20% to 100% B, taking solvent A to be 0.01 M ammonium formate/water and solvent B to be 80% acetonitrile 0.01 M ammonium formate/water. The probe containing BODIPY was detected by the absorbance at a wavelength of 504 nm and the probe containing TG at a wavelength of 495 nm, and m/z of the MS spectrum at each peak was confirmed to agree with the expected m/z. Three independent tests were run, and the mean±SD was calculated. […] Given that imaging of probe 1 was not successful, there was thought to be a threshold at which the membrane permeability changes rapidly between this 6.741 minutes and 7.098 minutes (band in FIG. 2).

OE21 cell line = experiment: Cell imaging of OE21 cells against CB7 negative control; type: cell-based; settings: probe 5: 40 μM, 90 minutes at 37° C., CB7 10 μM control
Description: 40 μM of probe 5 was added to culture medium (RPMI 1640, 10% FBS, 15 mM HEPES, phenol red-free). After culturing for 90 minutes at 37° C., the cells were washed using a chilled medium and examined under a confocal microscope. A sample with a specific ALDH3A1 inhibitor (1-[(4-fluorophenyl)sulfonyl]-2-methyl-1H-benzimidazole, CB7, 10 μM) added served as a negative control. Excitation was provided by a 488 nm laser, and observation was carried out at wavelengths of […] in detection.

ALDH1A3 = biological target: T3, ALDH1A3; experiment: Reactivity of probes to recombinant ALDH1A3 (UPLC/MS/MS); type: biochemical; settings: 10-100 nM ALDH, 10-80 μM compound, Tris buffer pH 7.5, 30 minutes at 37° C.; ◯/X not defined by a legend
Description: as §1, with “formate/water.” for “formate/water. An aldehyde-form and carboxylic acid-form probe were detected by the absorbance at a wavelength of 504 nm, and m/z of the MS spectrum at each peak was confirmed to agree with the expected m/z.”

A549 cells = test system: A549 cells
From the text: An esophageal squamous cell carcinoma cell line (OE21 cell line) which are cells that express a high level of ALDH3A1 was used as the cells.

[6] = substrate: CCN(CCOCCNC(=O)c1ccc(-c2c3ccc(=O)cc-3oc3cc(O)ccc23)c(C)c1)c1ccc(C=O)cc1; experiment: Kinetic characteristics (Michaelis-Menten Km, Kcat) with ALDH1A1; type: biochemical, Human; settings: other: five minutes at 37° C., Tris buffer pH 7.5
Description: as §1, §2

[7] = five minutes at 37° C., Tris buffer pH 7.5

Row | Molecule | Reactivity to ALDH1A1 (ALDH1A1 [1]) | Reactivity to ALDH1A1 (ALDH1A1 [1]; listed as compound 3) | Reactivity to ALDH3A1 (ALDH3A1 [2]) | Reactivity to ALDH3A1 (ALDH3A1 [2]; listed as compound 3) | Kcat ALDH1A1 (ALDH1A1 [3]) | Km (ALDH1A1 [3]) | Kcat ALDH3A1 (ALDH3A1 [4]; [7]) | Km (ALDH3A1 [4]; [7]) | Kcat ratio (Kcat of ALDH3A1/Kcat of ALDH1A1) (ALDH3A1 [4]; indicator of ALDH1A1/ALDH3A1 specificity) | Retention Time, Aldehyde form [5] | Retention Time, carboxylate (carboxylic acid form) [5] | Brightness of cells in imaging compared to negative control (CB7) (OE21 cell line) | Reactivity to ALDH1A1 (ALDH1A1 [1]; listed as compound 2) | Reactivity to ALDH1A3 (ALDH1A3) | Brightness of cells in imaging compared to negative control (A549 cells) | Km [6] | kcat [6]
1 | 2-(N-ethyl-N-(4-formylphenyl)amino)ethyl-3-(1,3-dimethyl-4,4-difluoro-4-bora-3a,4a-diaza-s-indacen-5-yl)-propionamide [Probe 3] | ◯ | reacted with ALDH1A1 and ALDH3A1 | ◯ | reacted with ALDH1A1 and ALDH3A1 | 0.101 ± 0.00333 s⁻¹ | 0.17 ± 0.03 µM | 0.203 ± 0.0033 s⁻¹ | 0.87 ± 0.07 µM | 2 | 9.153 ± 0.010 min | 7.920 ± 0.052 min | no evident difference in brightness could be found in comparison to the negative control |  |  |  |  | 
2 | N-(4-formylphenyl)-3-(1,3-dimethyl-4,4-difluoro-4-bora-3a,4a-diaza-s-indacen-5-yl)-propionamide [Probe 2] | ◯ |  | presented reactivity only with ALDH1A1 |  | 3.4 ± 0.415 s⁻¹ | 5.76 ± 2.39 µM |  |  |  | 9.330 ± 0.002 min | 7.284 ± 0.047 min |  | presented reactivity only with ALDH1A1 | presented reactivity only with ALDH1A1 | no evident difference in brightness was found in comparison to the negative control |  | 
3 | B1 |  |  |  |  |  |  |  |  |  |  |  |  |  |  |  | 0.26 ± 0.05 µM | 0.017 ± 0.00067 s⁻¹
